According to patent US20230312643A1, “PEPTIDE DERIVATIVE WITH COLLAGENASE INHIBITORY ACTIVITY, AND USE THEREOF” (SUNMARINE BIOTECH, priority 2020, published 2023):

What was measured:
gelatinase = test: Gelatinase inhibitory activity (EnzChek Gelatinase/Collagenase Assay Kit, DQ gelatin); format: biochemical; conditions: 0.5 mg/ml
Description: Gelatinase is an enzyme which plays a major role in promoting skin aging by more finely degrading collagen fragments digested by MMP-1 with MMP-2, and wrinkle reduction activity was determined by measuring the inhibitory activity of the enzyme.
Gelatinase inhibitory activity was performed by purchasing EnzChek® Gelatinase/Collagenase Assay Kit (250-2000 Assays) reagent from Invitrogen. First, DQ gelatin stock solution (1 mg/ml) was prepared by adding 1.0 ml of DDW to 1 mg DQ gelatin vial. The 18 ml of DDW was added to 2 ml of 10× reaction buffer, so as to dilute reaction buffer. Then, a gelatinase enzyme reagent was prepared, and diluted with reaction buffer to a final concentration of 0.2 U/ml as working solution. Three samples of 50 ? each were prepared in a 96-well plate. The 30 ? of reaction buffer was added to 20 ? of DQ gelatin and sample blank, and 30 ? of working solution was added to a sample, which were then left in a light-blocked state at room temperature for about one to two hours, and then fluorescence intensity was measured at excitation wavelength 485 nm and 535 nm using ELISA plate reader (VICTOR X3™, PerkinElmer, US).

elastase = molecular target: T1, elastase (Sus scrofa, UniProt P00772); test: Elastase inhibitory activity (EnzChek Elastase Assay Kit, DQ elastin); format: biochemical
T1 construct: purchased Invitrogen
T1 sequence (P00772 27-266): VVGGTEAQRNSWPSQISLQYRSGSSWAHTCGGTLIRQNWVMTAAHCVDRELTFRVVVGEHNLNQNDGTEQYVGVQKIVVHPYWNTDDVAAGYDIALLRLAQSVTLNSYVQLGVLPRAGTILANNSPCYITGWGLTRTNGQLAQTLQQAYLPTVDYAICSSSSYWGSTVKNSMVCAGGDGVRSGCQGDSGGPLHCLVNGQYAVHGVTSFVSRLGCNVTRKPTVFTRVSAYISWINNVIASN
Description: Elastase inhibitory activity was performed by purchasing EnzChek® Elastase Assay Kit (600 Assays) reagent from Invitrogen. First, DQ elastin stock solution (1 mg/ml) was prepared by adding 1.0 ml of DDW to 1 mg DQ elastin vial. The 18 ml of DDW was added to 2 ml of 10× reaction buffer, so as to dilute reaction buffer. Then, an elastase enzyme reagent was prepared, and diluted with reaction buffer to a final concentration of 0.2 U/ml as working solution. Three samples of 50 ? each were prepared in a 96-well plate. The 50 ? of reaction buffer was added to 50 ? of DQ elastin and sample blank, and 50 ? of working solution was added to a sample, which were then left in a light-blocked state at room temperature for about one hour, and then fluorescence intensity was measured at excitation wavelength 505 nm and emission wavelength 515 nm using ELISA plate reader (VICTOR X3™, PerkinElmer, US).
Copper peptide (Comparative Example 12) and EGCg (Comparative Example 13), which is widely used as a raw material for functional cosmetics, were prepared at the same concentration and used as a positive control.
EGCg (epigallocatechin gallate) is a kind of polyphenol, which is an extract of green tea leaves, and is used as a cosmetic raw material for anti-oxidation, inflammation reduction, and wrinkle alleviation, and Copper peptide is used as a raw material for promoting wound healing, strengthening skin elasticity, and increasing subcutaneous fat layer to suppress skin aging due to excellent skin regeneration ability.

MMP1 protein (pdb1cgl) = molecular target: T2, MMP1 protein (pdb1cgl) (Homo sapiens, UniProt P03956); test: Molecular docking (SYBYL-X 2.1.1, Surflex-Dock 2.7) of binding affinity to collagenase; conditions: from Surflex-Dock total score
T2 sequence (P03956 101-269 limits assumed): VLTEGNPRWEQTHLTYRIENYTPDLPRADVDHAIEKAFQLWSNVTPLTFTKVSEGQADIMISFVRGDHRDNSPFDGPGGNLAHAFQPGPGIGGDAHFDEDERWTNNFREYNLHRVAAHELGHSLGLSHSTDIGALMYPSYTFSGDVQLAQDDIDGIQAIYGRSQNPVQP
Description: Molecular modeling was conducted through a computer simulation program.
Target structure: MMP1 protein (pdb1cgl)
Software: SYBYL-X 2.1.1, Surflex-Dock2.7
Through a computer simulation program, a study was conducted on how to promote collagenase enzyme inhibitory activity and percutaneous absorption during peptide modification.
Total score is a value indicating the degree of binding affinity of a docked structure including a crash and a polar interaction in the unit of pKd, and the larger the value, the higher the binding affinity. And, the similarity is a value comparing the similarity with the structure already bonded to the 1cgl, and means that the closer to 1, the more similar. The result of such docking means that the addition of an appropriate modification residue through a docking simulation of computer chemistry may increase the binding affinity and similarity.
However, when compared with the overall consensus score, a binding affinity similar to or higher than that of pdb1cgl_ligand may be expected, particularly in the modified GPN and PGN, too.

Row | binding affinity compared to 1cgl ligand (MMP1 protein (pdb1cgl)) | increase of binding affinity compared to before the modification (MMP1 protein (pdb1cgl)) | Structure (SMILES) | Gelatinase inhibitory activity (gelatinase) | elastase inhibitory activity (elastase; 0.1 mg/ml) | elastase inhibitory activity (elastase; 1 mg/ml)
1 |  |  | O=C(O[C@@H]1Cc2c(O)cc(O)cc2O[C@@H]1c1cc(O)c(O)c(O)c1)c1cc(O)c(O)c(O)c1 [EGCg, epigallocatechin gallate, reference compound] | 74.7% | 66.1 ± 4.4% | 66.1%
2 | about 51.8% |  | NCC(=O)N1CCC[C@H]1C(=O)N[C@@H](CC(N)=O)C(=O)O [GPN, Gly-Pro-Asn, reference compound] |  |  | 
3 | 74.7% | 21.9% | CCCC(=O)C(CC(N)=O)NC(=O)C1CCCN1C(=O)CNC (centres unmarked) [Me-GPN-Propyl] |  |  | 
4 | 90.1% | 28.6% | CCCC(=O)C(CC(N)=O)NC(=O)CNC(=O)C1CCCN1C (centres unmarked) [Me-PGN-Propyl] |  |  | 
